From ChEMBL document CHEMBL1201862, “PubChem BioAssay data set” (2004)
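Grown in 96-well plates, cells were treated for 48 hours with each compound at five concentrations. Insufficient inhibition: endpoint recorded as highest concentration tested. GI50 marks 50% less growth.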 The source made the active and inactive calls. Cut-off read from the data, not from the text of the source: active = GI50 up to about 1.1 µM and inactive = higher.

What was measured:
Assay in all cases: DTP human tumour cell line panel, 48 h
SN12C = test system: SN12C
SNB-19 = test system: SNB-19
MDA-MB-435 = test system: MDA-MB-435
CCRF-CEM = test system: CCRF-CEM
CAKI-1 = test system: CAKI-1
SF-295 = test system: SF-295
OVCAR-4 = test system: OVCAR-4
786-0 = test system: 786-0
UACC-62 = test system: UACC-62
OVCAR-5 = test system: OVCAR-5
PC-3 = test system: PC-3
COLO 205 = test system: COLO 205
NCI-H460 = test system: NCI-H460
SF-539 = test system: SF-539
HCT-15 = test system: HCT-15
NCI-H226 = test system: NCI-H226
HL-60 = test system: HL-60
MDA-MB-231 = test system: MDA-MB-231
SK-MEL-5 = test system: SK-MEL-5
IGROV-1 = test system: IGROV-1
HT-29 = test system: HT-29
MDA-N = test system: MDA-N
SW-620 = test system: SW-620
LOX IMVI = test system: LOX IMVI
HOP-92 = test system: HOP-92
SK-OV-3 = test system: SK-OV-3
OVCAR-3 = test system: OVCAR-3
UACC-257 = test system: UACC-257
NCI/ADR-RES = test system: NCI/ADR-RES
OVCAR-8 = test system: OVCAR-8
SF-268 = test system: SF-268
EKVX = test system: EKVX
Malme-3M = test system: Malme-3M
RPMI-8226 = test system: RPMI-8226
KM12 = test system: KM12
U-251 = test system: U-251
SK-MEL-28 = test system: SK-MEL-28
NCI-H522 = test system: NCI-H522
ACHN = test system: ACHN
T47D = test system: T47D
DU-145 = test system: DU-145
Hs-578T = test system: Hs-578T
NCI-H23 = test system: NCI-H23
HOP-62 = test system: HOP-62
MOLT-4 = test system: MOLT-4
HCT-116 = test system: HCT-116
M14 = test system: M14
MCF7 = test system: MCF7
RXF 393 = test system: RXF 393
SR = test system: SR
TK-10 = test system: TK-10
K562 = test system: K562
HCC 2998 = test system: HCC 2998

Measured: GI50

C/C=C(/C)C(=O)O[C@H]1C[C@@H]2[C@@H](O)c3occ(C)c3C[C@]2(C)[C@@H](C)C1
inactive: SN12C 14.1 µM | SNB-19 16.8 µM | MDA-MB-435 16.5 µM | CCRF-CEM 18.4 µM | CAKI-1 18.3 µM | SF-295 15.2 µM | OVCAR-4 18 µM | 786-0 16.1 µM | UACC-62 13.4 µM | OVCAR-5 19.6 µM | PC-3 14.4 µM | COLO 205 16.2 µM | NCI-H460 22.4 µM | SF-539 17.5 µM | NCI-H226 14.2 µM | HL-60 9.93 µM | MDA-MB-231 15.5 µM | SK-MEL-5 10.4 µM | IGROV-1 16.7 µM | HT-29 15.6 µM | MDA-N 18.7 µM | SW-620 16.2 µM | LOX IMVI 17.5 µM | HOP-92 17.4 µM | SK-OV-3 17.1 µM | OVCAR-3 17.1 µM | UACC-257 11.1 µM | NCI/ADR-RES 14.2 µM | OVCAR-8 19.2 µM | SF-268 16 µM | EKVX 15.8 µM | Malme-3M 15.8 µM | RPMI-8226 25.6 µM | KM12 16.3 µM | U-251 14.8 µM | SK-MEL-28 16.3 µM | NCI-H522 14.6 µM | ACHN 17.1 µM | T47D 11.6 µM | DU-145 14.8 µM | Hs-578T 28.8 µM | NCI-H23 17.8 µM | HOP-62 17.4 µM | MOLT-4 15.2 µM | HCT-116 15.2 µM | M14 15.6 µM | MCF7 20.9 µM | RXF 393 14.4 µM | SR 14.2 µM | TK-10 17.6 µM | K562 10.4 µM | HCC 2998 16.6 µM
18.7 µM: HCT-15
